Measured values published in patent US20050043378A1, “LTA4H modulators” (priority 2003, published 2005).
Structures can show the parent of a compound that is named as a salt.

Target: T1, recombinant human LTA4 hydrolase (rhLTA4H) (Homo sapiens, UniProt P09960)
T1 construct: made in house; host or cells: Spodoptera frugiperda (Sf-9) cells, baculovirus (pFastBac1)
T1 sequence (P09960 1-611): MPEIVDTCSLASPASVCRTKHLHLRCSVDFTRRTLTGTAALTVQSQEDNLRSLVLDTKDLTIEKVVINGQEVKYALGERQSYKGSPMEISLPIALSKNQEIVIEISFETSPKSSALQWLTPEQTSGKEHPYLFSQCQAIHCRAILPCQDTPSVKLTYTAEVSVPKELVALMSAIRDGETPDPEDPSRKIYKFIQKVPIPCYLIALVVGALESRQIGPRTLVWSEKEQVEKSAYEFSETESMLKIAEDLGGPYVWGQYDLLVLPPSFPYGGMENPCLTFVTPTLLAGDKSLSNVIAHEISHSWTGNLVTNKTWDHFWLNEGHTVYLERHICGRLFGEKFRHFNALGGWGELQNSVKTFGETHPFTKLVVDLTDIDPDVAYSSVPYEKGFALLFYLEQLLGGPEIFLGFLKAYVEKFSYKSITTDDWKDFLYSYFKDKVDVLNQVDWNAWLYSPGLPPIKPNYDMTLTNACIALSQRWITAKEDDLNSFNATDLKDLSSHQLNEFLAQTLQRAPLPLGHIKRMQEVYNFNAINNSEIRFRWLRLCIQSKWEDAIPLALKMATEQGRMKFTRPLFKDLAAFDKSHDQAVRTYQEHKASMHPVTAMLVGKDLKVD
Assay: Recombinant human LTA4 hydrolase assay for LTA4 hydrolase inhibitor activity;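 also: enzyme expressed in Sf-9 insect cells, compound preincubated 10 min with enzyme, 10 min reaction at room temperature, uninhibited reaction as positive control, enzyme-free blank as negative control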
Assay type: biochemical
Settings: LTA4 substrate, LTB4 by immunoassay, average of one to three determinations

Structure (SMILES)	IC50 [nM]
CC(C)(C)OC(=O)N1CCC(c2nnnn2CCOc2ccc(Oc3nc4ccccc4s3)cc2)CC1 [Example 176, 4-(1-{2-[4-(Benzothiazol-2-yloxy)-phenoxy]-ethyl}-1H-tetrazol-5-yl)-piperidine-1-carboxylic acid tert-butyl ester]	12
CCN(CC)Cc1ccc(Oc2nc3ccccc3s2)cc1 [Example 294, [4-(Benzothiazol-2-yloxy)-benzyl]-diethyl-amine]	6
OCC1CCCN(CCOc2ccc(Oc3nc4ccccc4s3)cc2)C1 (stereo not shown) [Example 265, (1-{2-[4-(Benzothiazol-2-yloxy)-phenoxy]-ethyl}-piperidin-3-yl)-methanol]	112
O=C1NCCC12CCN(CCOc1ccc(Oc3nc4ccccc4s3)cc1)CC2 [Example 25, 8-{2-[4-(Benzothiazol-2-yloxy)-phenoxy]-ethyl}-2,8-diaza-spiro[4.5]decan-1-one]	4
c1ccc2sc(Oc3ccc(OCCN4CCC(N5CCCCC5)CC4)cc3)nc2c1 [Example 80, 1′-{2-[4-(Benzothiazol-2-yloxy)-phenoxy]-ethyl}-[1,4′]bipiperidine]	23
NC(=O)CCN(CCc1ccc(Oc2nc3ccccc3s2)cc1)C1CC1 [Example 214, 3-({2-[4-(Benzothiazol-2-yloxy)-phenyl]-ethyl}-cyclopropyl-amino)-propionamide]	18
c1ccc2sc(Oc3ccc(OCCN4CCC(c5nnn[nH]5)CC4)cc3)nc2c1 [Example 270, 2-(4-{2-[4-(1H-Tetrazol-5-yl)-piperidin-1-yl]-ethoxy}-phenoxy)-benzothiazole]	16
c1ccc2sc(Oc3ccc(CCN4CCC(c5nnn[nH]5)CC4)cc3)nc2c1 [Example 262, 2-(4-{2-[4-(1H-Tetrazol-5-yl)-piperidin-1-yl]-ethyl}-phenoxy)-benzothiazole]	4
NC(=S)NC1CCN(Cc2ccc(Oc3nc4ccccc4s3)cc2)CC1 [Example 479, {1-[4-(Benzothiazol-2-yloxy)-benzyl]-piperidin-4-yl}-thiourea]	7
O=C(O)[C@@H]1CCCC[C@H]1NCCc1ccc(Oc2nc3ccccc3s2)cc1 [Example 225, (1 R,2R)-2-{2-[4-(Benzothiazol-2-yloxy)-phenyl]-ethylamino}-cyclohexanecarboxylic acid]	25
c1ccc2sc(Oc3ccc(CCN4CCN(CCN5CCOCC5)CC4)cc3)nc2c1 [Example 146, 2-(4-{2-[4-(2-Morpholin-4-yl-ethyl)-piperazin-1-yl]-ethyl}-phenoxy)-benzothiazole]	43
COC(=O)NC1CCN(Cc2ccc(Oc3nc4ccccc4s3)cc2)CC1 [Example 363, {1-[4-(Benzothiazol-2-yloxy)-benzyl]-piperidin-4-yl}-carbamic acid methyl ester]	4
CCOC(=O)C1CCN(CCOc2ccc(Oc3nc4ccccc4[nH]3)cc2)CC1 [Example 485, 1-{2-[4-(1H-Benzoimidazol-2-yloxy)-phenoxy]-ethyl}-piperidine-4-carboxylic acid ethyl ester]	39
CCN(CCO)Cc1ccc(Oc2nc3ccccc3s2)cc1 [Example 287, 2-{[4-(Benzothiazol-2-yloxy)-benzyl]-ethyl-amino}-ethanol]	28
OC1(c2ccccc2)CCN(Cc2ccc(Oc3nc4ccccc4s3)cc2)CC1 [Example 358, 1-[4-(Benzothiazol-2-yloxy)-benzyl]-4-phenyl-piperidin-4-ol]	11
c1ccc2sc(Oc3ccc(OCCn4cnnn4)cc3)nc2c1 [Example 224, 2-[4-(2-Tetrazol-1-yl-ethoxy)-phenoxy]-benzothiazole]	14
O=C(CN1CCN(CCOc2ccc(Oc3nc4ccccc4s3)cc2)CC1)N1CCCC1 [Example 153, 2-(4-{2-[4-(Benzothiazol-2-yloxy)-phenoxy]-ethyl}-piperazin-1-yl)-1-pyrrolidin-1-yl-ethanone]	8
OC(COc1ccc(Oc2nc3ccccc3o2)cc1)CN1CCCC1 (stereo not shown) [Example 135, 1-[4-(Benzooxazol-2-yloxy)-phenoxy]-3-pyrrolidin-1-yl-propan-2-ol]	92
CCN(CCc1ccc(Oc2nc3ccccc3[nH]2)cc1)C1CCCCC1 [Example 123, {2-[4-(1H-Benzoimidazol-2-yloxy)-phenyl]-ethyl}-cyclohexyl-ethyl-amine]	4
OC1(c2ccccc2)CCN(CCOc2ccc(Oc3nc4ccccc4[nH]3)cc2)CC1 [Example 37, 1-{2-[4-(1H-Benzoimidazol-2-yloxy)-phenoxy]-ethyl}-4-phenyl-piperidin-4-ol]	10

Structure (SMILES)	IC50 [nM]
c1ccc(Cn2nnnc2C2CCN(CCOc3ccc(Oc4nc5ccccc5s4)cc3)CC2)cc1 [Example 143, 2-(4-{2-[4-(1-Benzyl-1H-tetrazol-5-yl)-piperidin-1-yl]-ethoxy}-phenoxy)-benzothiazole]	64
NC(=O)C1CCCN(CCc2ccc(Oc3nc4ccccc4s3)cc2)C1 (stereo not shown) [Example 31, 1-{2-[4-(Benzothiazol-2-yloxy)-phenyl]-ethyl}-piperidine-3-carboxylic acid amide]	17
c1ccc2oc(Oc3ccc(OCCN4CCC4)cc3)nc2c1 [Example 77, 2-[4-(2-Azetidin-1-yl-ethoxy)-phenoxy]-benzooxazole]	10
NC1CCC1C(=O)NCC1CCN(Cc2ccc(Oc3nc4ccccc4s3)cc2)CC1 (stereo not shown) [Example 285, 2-Amino-cyclobutanecarboxylic acid {1-[4-(benzothiazol-2-yloxy)-benzyl]-piperidin-4-ylmethyl}-amide dihydrochloride]	76
CN(C1CCN(Cc2ccc(Oc3nc4ccccc4s3)cc2)CC1)S(C)(=O)=O [Example 255, N-{1-[4-(Benzothiazol-2-yloxy)-benzyl]-piperidin-4-yl}-N-methyl-methanesulfonamide]	1
O=C(O)CCCCCN(CCc1ccc(Oc2nc3ccccc3s2)cc1)C1CC1 [Example 419, 6-({2-[4-(Benzothiazol-2-yloxy)-phenyl]-ethyl}-cyclopropyl-amino)-hexanoic acid]	4
CCN(CC)CCOc1ccc(Oc2nc3ccc(Cl)cc3s2)cc1 [Example 12, {2-[4-(6-Chloro-benzothiazol-2-yloxy)-phenoxy]-ethyl}-diethyl-amine]	100
O=C(C1CCN(CCOc2ccc(Oc3nc4ccccc4s3)cc2)CC1)N1CCN(CCO)CC1 [Example 195, (1-{2-[4-(Benzothiazol-2-yloxy)-phenoxy]-ethyl}-piperidin-4-yl)-[4-(2-hydroxy-ethyl)-piperazin-1-yl]-methanone]	58
c1ccc2sc(Oc3ccc(CCN(CCCc4nn[nH]n4)C4CC4)cc3)nc2c1 [Example 389, {2-[4-(Benzothiazol-2-yloxy)-phenyl]-ethyl}-cyclopropyl-[3-(2H-tetrazol-5-yl)-propyl]-amine]	2
O=C(O)CCC1CCN(CCc2ccc(Oc3nc4ccccc4s3)cc2)CC1 [Example 202, 3-(1-{2-[4-(Benzothiazol-2-yloxy)-phenyl]-ethyl}-piperidin-4-yl)-propionic acid]	4
O=C(O)CN1CCN(Cc2ccc(Oc3nc4ccccc4s3)cc2)CC1 [Example 366, {4-[4-(Benzothiazol-2-yloxy)-benzyl]-piperazin-1-yl}-acetic acid]	39
O=C(O)CC1CCCN(CCc2ccc(Oc3nc4ccccc4s3)cc2)C1 (stereo not shown) [Example 157, (1-{2-[4-(Benzothiazol-2-yloxy)-phenyl]-ethyl}-piperidin-3-yl)-acetic acid]	1
c1ccc2oc(Oc3ccc(CN4CCCCC4)cc3)nc2c1 [Example 271, 2-(4-Piperidin-1-ylmethyl-phenoxy)-benzooxazole]	2
O=C(Cc1ccccc1)NC1CCN(CCOc2ccc(Oc3nc4ccccc4o3)cc2)CC1 [Example 78, N-(1-{2-[4-(Benzooxazol-2-yloxy)-phenoxy]-ethyl}-piperidin-4-yl)-2-phenyl-acetamide]	3
c1ccc2[nH]c(Oc3ccc(CCN4CCCCC4)cc3)nc2c1 [Example 230, 2-[4-(2-Piperidin-1-yl-ethyl)-phenoxy]-1H-benzoimidazole]	36
CN(C)CCCOc1ccc(Oc2nc3ccccc3o2)cc1 [Example 45, {3-[4-(Benzooxazol-2-yloxy)-phenoxy]-propyl}-dimethyl-amine]	15
O=C(O)C1CC1CN(CCc1ccc(Oc2nc3ccccc3s2)cc1)C1CC1 (stereo not shown) [Example 211, 2-[({2-[4-(Benzothiazol-2-yloxy)-phenyl]-ethyl}-cyclopropyl-amino)-methyl]-cyclopropanecarboxylic acid]	9
Oc1ccc(N2CCN(CCOc3ccc(Oc4nc5ccccc5s4)cc3)CC2)cc1 [Example 167, 4-(4-{2-[4-(Benzothiazol-2-yloxy)-phenoxy]-ethyl}-piperazin-1-yl)-phenol]	37
O=C1CCCN1C1CCN(CCOc2ccc(Oc3nc4ccccc4[nH]3)cc2)CC1 [Example 231, 1-(1-{2-[4-(1H-Benzoimidazol-2-yloxy)-phenoxy]-ethyl}-piperidin-4-yl)-pyrrolidin-2-one]	18
O=C(O)[C@@H]1CCCN(CCc2ccc(Oc3nc4ccccc4s3)cc2)C1 [Example 183, (R)-1-{2-[4-(Benzothiazol-2-yloxy)-phenyl]-ethyl}-piperidine-3-carboxylic acid]	18
